Results reported in patent publication US20060252798A1, “Metal ion chelators and therapeutic use thereof” (priority 2003, published 2006).
Where “and” joins values, the source holds several entries; their conditions need not be identical. Equal values may be shown once.

How the values were obtained:
[1] = test system: SK-N-MC neuroepithelioma cells; experiment: 3H-thymidine incorporation by SK-N-MC cells; assay type: cell-based, human; details: 20 h incubation then 2 h label; Mean ± SD, 4 experiments
Method: After a 20 h incubation of the SK-N-MC cells with a selection of analogues, ^3H-thymidine, ^3H-leucine, or ^3H-uridine (1 μCi/ml) was added for 2 h at 37° C. The cells were detached from the 96 well plate using 1 mM EDTA in Ca(II)/Mg(II)-free PBS and collected and washed using a cell harvester (Tomtec Harvester 96, Linbrook, Queensland, Australia). Radioactivity was measured on a P-scintillation counter (LKB Wallace, Turku, Finland).

M109 lung carcinoma = experiment: Inhibition of M109 lung carcinoma growth in vivo; parameters: species or system mouse; details: 0.4 mg/kg iv twice daily for 5 days, day 12
Method: Inhibition of M109 Lung Cancer Cell Growth by Iron Chelators In Vivo Female CD2F1 mice aged 8-10 weeks old were sc implanted with 1×10^5 M109 cells. The tumour cells were passaged in CD2F1 mice by preparing a brei from the tumour and injecting it sc.^20 Dp44mT was dissolved in 30% (v/v) propylene glycol in saline and injected iv 4 days after tumour engraftment, twice daily for 5 days followed by a “rest period” of 2 days when the animal was not injected. On the twelfth day after tumour implantation, mice were sacrificed using methoxyfluorane and cardiac puncture performed. Blood counts and erythrocyte indices were measured using a Sysmex Blood Counter (Prince of Wales Hospital, Sydney, Australia). Mouse body weight changes during the treatment period were recorded. The tumours were weighed and fixed for histological examination. The experimental groups consisted of eight mice for the control and each treatment (Table 5).
As a relevant positive control, animals were administered Triapine® at its MTD (6 mg/kg). The tumour weight was measured on the twelfth day after the tumour cell implantation.

[2] = Mouse weight loss and haematological indices in M109-bearing mice; assay type: in vivo; details: Mean ± SEM
Method: The tumour cells were passaged in CD2F1 mice by preparing a brei from the tumour and injecting it sc.^20 Dp44mT was dissolved in 30% (v/v) propylene glycol in saline and injected iv 4 days after tumour engraftment, twice daily for 5 days followed by a “rest period” of 2 days when the animal was not injected. On the twelfth day after tumour implantation, mice were sacrificed using methoxyfluorane and cardiac puncture performed. Blood counts and erythrocyte indices were measured using a Sysmex Blood Counter (Prince of Wales Hospital, Sydney, Australia). Mouse body weight changes during the treatment period were recorded. The tumours were weighed and fixed for histological examination. The experimental groups consisted of eight mice for the control and each treatment (Table 5).

active caspase-9 = experiment: Protein level of active caspase-9 in M109 cells (western blotting); assay type: cell-based, mouse; details: 1 μM
Method: FIG. 14. Effect of Dp44mT (1 μM) on the (A,B) protein levels of active caspase-3, -8 and -9, and (C,D) the activity of caspase-3, -8 and -9 in cultured M109 cells in the absence (C) and presence (D) of cell-permeable caspase inhibitors. (A) Caspase-3, -8, and -9 levels after Dp44mT treatment at indicated times as detected by western blotting (upper panel). The anti-β-actin antibody was used to ensure equal protein loading (lower panel). (B) Densitometric analysis of the expression of caspase-3, -8, and -9 as a function of time normalized to β-actin (C) Caspase activity induced by Dp44mT (1 μM) at 0-48 h was expressed as a percentage of the 0 h time value. (D) Cell-permeable inhibitors of caspase-3, -8 or -9 at 1 μM prevented activation of these enzymes when incubated with Dp44mT (1 μM) for 48 h. Results are mean±SEM of three separate experiments.
Rabbit anti-active caspase-3 antibody, rabbit anti-active caspase-8 antibody and Annexin V fluorescein isothiocyanate (FITC) were from BD PharMingen (San Diego, Calif., USA). Anti-h-cytc MoAb was from R&D Systems Minneapolis, Minn., USA). Rabbit anti-active caspase-9 antibody, mouse anti-Bcl-2 and mouse anti-Bax antibodies were obtained from Santa Cruz (Santa Cruz, Calif., USA). Mouse anti-mouse β-actin antibody, horseradish peroxidase-conjugated antirabbit, and anti-mouse IgG were from Sigma Chemical Co. (St. Louis, Mo., USA).
To determine the role of caspase activation in Dp44mT-induced apoptosis in M109 cells, protein levels of active caspase-3, -8 and -9 (FIG. 14A,B) and their enzymatic activity (FIG. 14C,D) were examined.

[3] = test system: holo-cytochrome c (h-cytc); experiment: Release of holo-cytochrome c from mitochondria into cytosol of M109 cells; assay type: cell-based, mouse; details: 1 μM, 2 h exposure (FIG. 15A)
Method: Due to the importance of h-cytc release from the mitochondrion on apoptosis induction,^8 further studies investigated the effect of Dp44mT on this process (FIG. 15A). Preparation of cytosolic and mitochondrial fractions and western blotting were carried out using standard techniques.^27 There was very little h-cytc expression in the cytosolic fractions of control M109 cells (i.e., at 0 h), with the greatest amount of h-cytc being found in the mitochondrion at this time (FIG. 15A). […] The release of h-cytc into the cytosol plateaued after a 4 h incubation with Dp44mT and then decreased to that found in control cells after 24 and 48 h. This increase in cytosolic h-cytc correlated with the loss from the mitochondrion (FIG. 15A). The near complete disappearance of h-cytc from the cytosol at 24 and 48 h may be due to its release from cells or its degradation^28 (FIG. 15A).

Bax = Bax protein level in M109 cells; assay type: cell-based, mouse; details: 1 μM, 48 h
Method: Considering the roles of Bcl-2 and Bax in the mitochondrial pathway of apoptosis and their role in h-cytc release, ^8,11,12 the effect of Dp44mT (1 μM) on the protein levels of these molecules was assessed (FIG. 15B).

CC(=O)N(O)CCCCCNC(=O)CCC(=O)N(O)CCCCCNC(=O)CCC(=O)N(O)CCCCCN [DFO, desferrioxamine]
3H-Thymidine Incorporation [1]: 29 ± 13 % Control and 29 + 13 % Control

CN(C)C(=S)NN=C(c1ccccn1)c1ccccn1 [Dp44mT, di-2-pyridylketone 4,4-dimethyl-3-thiosemicarbazone]
tumour weight (M109 lung carcinoma): 47 % of control | Body weight loss ([2]; Dp44mT 0.3 mg/kg): 1.3 ± 0.3 g | Haematocrit ([2]; Dp44mT 0.3 mg/kg): 0.40 ± 0.03 | Haemoglobin ([2]; Dp44mT 0.3 mg/kg): 13.3 ± 0.5 g/dL | Platelets ([2]; Dp44mT 0.3 mg/kg): 1019 ± 87 10^9/L | RBC ([2]; Dp44mT 0.3 mg/kg): 8.9 ± 0.4 10^12/L | WBC ([2]; Dp44mT 0.3 mg/kg): 4.2 ± 0.4 10^9/L | Body weight loss ([2]; Dp44mT 0.4 mg/kg): 1.1 ± 0.2 g | Haematocrit ([2]; Dp44mT 0.4 mg/kg): 0.40 ± 0.01 | Haemoglobin ([2]; Dp44mT 0.4 mg/kg): 11.8 ± 0.8 g/dL | Platelets ([2]; Dp44mT 0.4 mg/kg): 636 ± 88 10^9/L | RBC ([2]; Dp44mT 0.4 mg/kg): 8.0 ± 0.6 10^12/L | WBC ([2]; Dp44mT 0.4 mg/kg): 3.9 ± 0.6 10^9/L | caspase-9 protein level (active caspase-9; 2 h): 171 % of the control | caspase-9 protein level (active caspase-9; 6 h): 280 % of the control | caspase-9 protein level (active caspase-9; 12 h): 280 % of the control | caspase-9 protein level (active caspase-9; 24 h): about 4 fold that of control cells | caspase-9 protein level (active caspase-9; 48 h): greater than 10 fold that of control cells | h-cytc release from the mitochondrion [3]: h-cytc was found in the cytosolic fraction | Bax expression (Bax): 500 % of that found at the 0 h time point
